Assay results: ChEMBL document CHEMBL5506004, “Optimizing drug-like properties of selective butyrylcholinesterase inhibitors for cognitive improvement: Enhancing aqueous solubility by disrupting molecular plane” (Eur J Med Chem, 2024)
≈ marks a conversion by molar mass, not a printed value. Calls of active or inactive are those of the source. The calls are words filed in the database; no cut-off is given here.

Key:
[1] = biological target: Cholinesterase (Equus caballus, UniProt P81908); test: Inhibition of horse serum BChE using BTC iodide as substrate preincubated for 5 mins followed by substrate addition measured after 2 mins by Ellman's method
Cholinesterase (Equus caballus, UniProt P81908), sequence (P81908 whole entry): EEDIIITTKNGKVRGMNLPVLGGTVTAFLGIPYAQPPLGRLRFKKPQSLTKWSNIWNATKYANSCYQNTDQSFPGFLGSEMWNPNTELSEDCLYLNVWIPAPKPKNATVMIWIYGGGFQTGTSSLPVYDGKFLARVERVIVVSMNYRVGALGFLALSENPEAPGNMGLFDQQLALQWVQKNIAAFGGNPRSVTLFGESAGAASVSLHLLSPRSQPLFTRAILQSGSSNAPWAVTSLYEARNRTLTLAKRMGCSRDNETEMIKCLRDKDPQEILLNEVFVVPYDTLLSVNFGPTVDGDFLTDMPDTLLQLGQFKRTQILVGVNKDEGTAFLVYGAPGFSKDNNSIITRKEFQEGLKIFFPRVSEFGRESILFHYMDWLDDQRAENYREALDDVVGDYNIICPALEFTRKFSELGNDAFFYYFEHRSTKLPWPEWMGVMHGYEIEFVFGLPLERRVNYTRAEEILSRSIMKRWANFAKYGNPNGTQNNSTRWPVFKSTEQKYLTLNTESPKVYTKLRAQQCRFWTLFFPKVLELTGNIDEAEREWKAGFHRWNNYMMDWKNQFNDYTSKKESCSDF

[2] = Solubility of compound in FaSSIF incubated for 24 hrs by HPLC analysis; format: ADME
[3] = biological target: Cholinesterase (Homo sapiens, UniProt P06276); test: Inhibition of human BChE using BTC iodide as substrate preincubated for 5 mins followed by substrate addition measured after 2 mins by Ellman's method
Cholinesterase (Homo sapiens, UniProt P06276), sequence (P06276 whole entry): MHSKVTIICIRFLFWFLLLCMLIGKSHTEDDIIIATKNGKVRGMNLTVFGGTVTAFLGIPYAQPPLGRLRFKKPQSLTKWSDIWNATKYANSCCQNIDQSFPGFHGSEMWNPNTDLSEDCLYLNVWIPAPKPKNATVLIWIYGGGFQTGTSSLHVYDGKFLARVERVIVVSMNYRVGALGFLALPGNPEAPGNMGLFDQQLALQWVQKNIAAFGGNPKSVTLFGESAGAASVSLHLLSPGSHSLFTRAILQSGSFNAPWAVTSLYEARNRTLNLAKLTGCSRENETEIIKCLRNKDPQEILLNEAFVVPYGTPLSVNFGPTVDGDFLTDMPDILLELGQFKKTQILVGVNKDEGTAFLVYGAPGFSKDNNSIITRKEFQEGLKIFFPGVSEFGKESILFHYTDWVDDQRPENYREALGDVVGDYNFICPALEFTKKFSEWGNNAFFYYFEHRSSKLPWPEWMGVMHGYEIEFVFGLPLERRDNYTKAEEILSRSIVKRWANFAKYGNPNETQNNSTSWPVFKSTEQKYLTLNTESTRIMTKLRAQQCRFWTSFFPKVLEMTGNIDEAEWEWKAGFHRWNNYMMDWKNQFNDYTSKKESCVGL

[4] = Tmax in Sprague-Dawley rat at 10 mg/kg, po measured for 1 to 1440 mins by LC-MS/MS analysis; format: ADME, organism-based; conditions: in vivo, time 1-1440 min
[5] = AUC (0 to t) in Sprague-Dawley rat at 10 mg/kg, po measured for 1 to 1440 mins by LC-MS/MS analysis; format: ADME, organism-based; conditions: in vivo, time 1-1440 min
[6] = AUC (0 to infinity) in Sprague-Dawley rat at 10 mg/kg, po measured for 1 to 1440 mins by LC-MS/MS analysis; format: ADME, organism-based; conditions: in vivo, time 1-1440 min
[7] = MRT (infinity) in Sprague-Dawley rat at 10 mg/kg, po measured for 1 to 1440 mins by LC-MS/MS analysis; format: ADME, organism-based; conditions: in vivo, time 1-1440 min
[8] = Half life in Sprague-Dawley rat at 10 mg/kg, po measured for 1 to 1440 mins by LC-MS/MS analysis; format: ADME, organism-based; conditions: in vivo, time 1-1440 min
[9] = Cmax in Sprague-Dawley rat at 10 mg/kg, po measured for 1 to 1440 mins by LC-MS/MS analysis; format: ADME, organism-based; conditions: in vivo, po, 10 mg/kg, time 1-1440 min
[10] = Oral bioavailability in Sprague-Dawley rat at 10 mg/kg measured for 1 to 1440 mins by LC-MS/MS analysis; format: ADME, organism-based; conditions: in vivo, time 1-1440 min
[11] = tested on: BV-2; test: Cytotoxicity against mouse BV-2 cells assessed as survival rate at 100 uM incubated for 24 hrs by MTT assay relative to control; format: functional; conditions: read-out: Survival
[12] = tested on: HT-22; test: Cytotoxicity against mouse HT-22 cells assessed as survival rate at 100 uM incubated for 24 hrs by MTT assay relative to control; format: functional; conditions: read-out: Survival
[13] = tested on: PC-12; test: Cytotoxicity against rat PC12 cells assessed as survival rate at 100 uM incubated for 24 hrs by MTT assay relative to control; format: functional; conditions: read-out: Survival
[14] = tested on: SH-SY5Y; test: Cytotoxicity against human SH-SY5Y cells assessed as survival rate at 100 uM incubated for 24 hrs by MTT assay relative to control; format: functional; conditions: read-out: Survival
[15] = Cytotoxicity against human L02 cells assessed as survival rate at 100 uM incubated for 24 hrs by MTT assay relative to control; format: toxicity, cell-based; conditions: read-out: Survival
[16] = Acute toxicity in ICR mouse assessed as animal death at 1 g/kg, IG; conditions: in vivo, po, 1000 mg/kg
[17] = Acute toxicity in ICR mouse assessed as animal growth at 1 g/kg, IG; conditions: in vivo, po, 1000 mg/kg
[18] = tested on: PC-12; test: Neuroprotective activity in rat PC12 cells assessed as cell viability pretreated for 2 hrs followed by H2O2 addition measured after 24 hrs by MTT assay; format: functional, cell-based; conditions: time 26.0 hrs
[19] = tested on: SH-SY5Y; test: Neuroprotective activity against amyloid beta (1 to 42)-induced neuronal death in human SH-SY5Y cells assessed as cell viability pretreated for 1 hr followed by amyloid beta (1 to 42) addition measured after 24 hrs by MTT assay; format: functional, cell-based; conditions: dose 1-10 µM, time 25.0 hrs
[20] = Metabolic stability in human liver microsomes assessed as compound metabolism at 2 uM measured for 60 mins by LC-MS/MS analysis; format: ADME, Microsome; conditions: read-out: Drug metabolism
[21] = Permeability of compound at 50 ug/ml incubated for 18 hrs by PAMPA; format: ADME; conditions: dose 50 µg/ml, read-out: permeability
[22] = Metabolic stability in human liver microsomes assessed as compound remaining at 2 uM measured after 12.8 mins by LC-MS/MS analysis; format: ADME, Microsome; conditions: read-out: Activity
[23] = tested on: Mus musculus; test: Cognitive enhancing effect in Amyloid beta (1 to 42)-treated ICR mouse assessed as reduction in trajectory uncertainty at 10 mg/kg, po administered daily measured after 7 to 12 days by Morris water maze test; format: functional, organism-based; conditions: time 7-12 day
[24] = tested on: Mus musculus; test: Cognitive enhancing effect in Amyloid beta (1 to 42)-treated ICR mouse assessed as shorter arrival time at 10 mg/kg, po administered daily measured after 7 to 12 days by Morris water maze test; format: functional, organism-based; conditions: time 7-12 day
[25] = tested on: BV-2; test: Cytotoxicity against mouse BV-2 cells assessed as survival rate incubated for 24 hrs by MTT assay; format: functional, cell-based; conditions: BV-2, 24 h
[26] = tested on: SH-SY5Y; test: Cytotoxicity against human SH-SY5Y cells assessed as survival rate incubated for 24 hrs by MTT assay; format: functional, cell-based
[27] = tested on: HT-22; test: Neuroprotective activity against glutamate-induced excitotoxicity in mouse HT-22 cells assessed as cell viability at 1 to 10 uM pretreated for 1 hr followed by glutamate addition measured after 24 hrs by MTT assay; format: functional, cell-based; conditions: dose 1-10 µM, time 25.0 hrs

Structure (SMILES) | IC50 [1] [nM] | solubility at 24 h [2] [µM] | further results
Nc1nonc1-c1nc2ccccc2n1CC(=O)Nc1cccc(N2CCOCC2)c1 | 49.5 | 1270 (≈ 534 µg/mL) | 
Nc1nonc1-c1nc2ccccc2n1CC(=O)Nc1cncc(Br)c1 | 15.4 | 476 (≈ 197 µg/mL) | IC50 [3]: 119 nM
COC(=O)c1ccnc(NC(=O)Cn2c(-c3nonc3N)nc3ccccc32)c1 | 33.1 | 175 (≈ 68.8 µg/mL) | 
Nc1nonc1-c1nc2ccccc2n1CC(=O)Nc1cncc(Cl)c1 | 31.6 | 462 (≈ 171 µg/mL) | 
CN1CCN(C(=O)c2ccc(NC(=O)Cn3c(-c4nonc4N)nc4ccccc43)cc2)CC1 | 84 | 1020 (≈ 471 µg/mL) | 
Nc1c2c(nc3ccccc13)CCCC2 [TACRINE] |  | 1440 (≈ 285 µg/mL) | 
CN1CCN(C(=O)Cc2cccc(NC(=O)Cn3c(-c4nonc4N)nc4ccccc43)c2)CC1 | 1940 | 1330 (≈ 631 µg/mL) | 
Nc1nonc1-c1nc2ccccc2n1CC(=O)Nc1ccc(C(=O)N2CCOCC2)cc1 | 67 | 467 (≈ 209 µg/mL) | 
Nc1nonc1-c1nc2ccccc2n1CC(=O)Nc1cccc(CC(=O)N2CCOCC2)c1 | 193 | 728 (≈ 336 µg/mL) | 
Nc1nonc1-c1nc2ccccc2n1CC(=O)Nc1cccc(C(=O)O)c1 | 1970 | ≥ 5290 | 
Nc1nonc1-c1nc2ccccc2n1CC(=O)Nc1ccccn1 | 1320 | 322 (≈ 108 µg/mL) | 
Nc1nonc1-c1nc2ccccc2n1CC(=O)Nc1cnc2ccccc2c1 |  | 231 (≈ 89 µg/mL) | Tmax [4]: 9.5 min
Nc1nonc1-c1nc2ccccc2n1CC(=O)Nc1cccnc1 | 154 | 373 (≈ 125 µg/mL) | 
CN1CCN(Cc2ccc(NC(=O)Cn3c(-c4nonc4N)nc4ccccc43)cc2)CC1 | 99.8 | 2660 (≈ 1190 µg/mL) | 
CN1CCN(c2ccc(NC(=O)Cn3c(-c4nonc4N)nc4ccccc43)cc2)CC1 | 92.3 | 1360 (≈ 588 µg/mL) | 
Nc1nonc1-c1nc2ccccc2n1CC(=O)Nc1cccc(N2CCCCC2)c1 | 4.71 | 74.3 (≈ 31 µg/mL) | IC50 [3]: 21.2 nM
Nc1nonc1-c1nc2ccccc2n1CC(=O)Nc1ccccc1N1CCOCC1 | 2470 | 536 (≈ 225 µg/mL) | 

Structure (SMILES) | IC50 [1] [nM] | solubility at 24 h [2] [µM] | further results
Nc1nonc1-c1nc2ccccc2n1CC(=O)Nc1cccc(N2CCCC2)c1 | 5.57 | 104 (≈ 42 µg/mL) | IC50 [3]: 2.26 nM
N#Cc1cc(Br)cc(NC(=O)Cn2c(-c3nonc3N)nc3ccccc32)c1 |  | 379 (≈ 166 µg/mL) | AUC(0-t) [5]: 3360 ng·h/mL; AUC(0-inf) [6]: 3780 ng·h/mL; MRT inf [7]: 7.37 h; half-life [8]: 284 min; Tmax [4]: 10.8 min; Cmax [9]: 975.05 ng/mL; bioavailability [10]: 23.6%
Nc1nonc1-c1nc2ccccc2n1CC(=O)NC1CCCCC1 | 3520 | 232 (≈ 79 µg/mL) | 
CN1CCN(C(=O)Cc2ccc(NC(=O)Cn3c(-c4nonc4N)nc4ccccc43)cc2)CC1 | 609 | 1770 (≈ 842 µg/mL) | 
Nc1nonc1-c1nc2ccccc2n1CC(=O)Nc1ccc(CN2CCOCC2)cc1 | 14 | 3050 (≈ 1320 µg/mL) | IC50 [3]: 106 nM; viability at 100 µM [11]: 78.2%; viability at 100 µM [12]: 66.5%; viability at 100 µM [13]: 101%; viability at 100 µM [14]: 131%; viability at 24 h, 100 µM [15]: 114%; Activity [16]: Non-Toxic; Activity [17]: Non-Toxic; Activity [18]: Dose-Dependent Effect; Activity [19]: Dose-Dependent Effect; metabolised at 1 h, 2 µM [20]: < 15%; Papp at 18 h, 50 ug/ml [21]: 5.38 ×10⁻⁶ cm/s
C[C@]12CC[C@H]3[C@@H](CCC4=CC(=O)CC[C@@]43C)[C@@H]1CC[C@@H]2O [TESTOSTERONE] |  |  | remaining at 0.2133 h, 2 µM [22]: 50%
CN1CCN(c2ccccc2NC(=O)Cn2c(-c3nonc3N)nc3ccccc32)CC1 | 524 | 483 (≈ 209 µg/mL) | 
Nc1nonc1-c1nc2ccccc2n1CC(=O)Nc1ccc(N2CCOCC2)cc1 | 481 | 861 (≈ 361 µg/mL) | 
Nc1nonc1-c1nc2ccccc2n1CC(=O)Nc1cncc(C(F)(F)F)c1 | 94.5 | 660 (≈ 266 µg/mL) | 
Nc1nonc1-c1nc2ccccc2n1CC(=O)Nc1ccc(N2CCCCC2)cc1 | 168 | 86.2 (≈ 36 µg/mL) | 
COc1cc2c(cc1OC)C(=O)C(CC1CCN(Cc3ccccc3)CC1)C2 (configuration not stated) |  |  | Activity [23]: Active; Activity [24]: Active
Nc1nonc1-c1nc2ccccc2n1CC(=O)Nc1cncc(F)c1 | 99.4 | 512 (≈ 181 µg/mL) | 
Nc1nonc1-c1nc2ccccc2n1CC(=O)Nc1ccc(CC(=O)N2CCOCC2)cc1 | 123 | 951 (≈ 439 µg/mL) | 
Nc1nonc1-c1nc2ccccc2n1CC(=O)Nc1ccncc1 | 172 | 474 (≈ 159 µg/mL) | 
COC(=O)c1cncc(NC(=O)Cn2c(-c3nonc3N)nc3ccccc32)c1 | 43 | 211 (≈ 83 µg/mL) | 
CN1CCN(c2cccc(NC(=O)Cn3c(-c4nonc4N)nc4ccccc43)c2)CC1 | 19.4 | 2820 (≈ 1220 µg/mL) | IC50 [3]: 121 nM; viability at 100 µM [12]: 89.5%; viability at 100 µM [13]: 82.6%; viability at 24 h, 100 µM [15]: 102%; IC50 [25]: 16.9 µM; IC50 [26]: 10.3 µM; Activity [16]: Non-Toxic; Activity [17]: Non-Toxic; Activity [18]: Dose-Dependent Effect; Activity [27]: Active; metabolised at 1 h, 2 µM [20]: < 15%; Papp at 18 h, 50 ug/ml [21]: 3.57 ×10⁻⁶ cm/s
